Target: human CCR5 (Homo sapiens, UniProt P51681)
Test: gp120-sCD4-CCR5 binding assay (FACS)
Details: CHO-K1 cell line stably transfected with the human CCR5 gene; biotinylated gp120 (JRFL strain) and soluble recombinant CD4; 1% DMSO
Procedure: gp120-sCD4-CCR5 Binding Assay:
The gp120-sCD4-CCR5 binding assay was carried out as previously described (Dragic, T., A. Trkola, et al. (2000). “A binding pocket for a small molecule inhibitor of HIV-1 entry within the transmembrane helices of CCR5.” Proc Natl Acad Sci USA 97: 5639-44.) with the following minor modifications: the cell line used for these experiments was a CHO-K1 cell line stably transfected with the human CCR5 gene; the gp120-CD4 complex comprised recombinant biotinylated gp120 (JRFL strain) and soluble recombinant CD4; and all compounds were tested in a final concentration of 1% DMSO.
All reagents and cell lines were obtained from Progenics Pharmaceuticals Inc, Tarrytown, N.Y., USA, and are commercially available or can be prepared according to the methods described and the information given in the papers above.

Sequence of human CCR5 (P51681 whole entry): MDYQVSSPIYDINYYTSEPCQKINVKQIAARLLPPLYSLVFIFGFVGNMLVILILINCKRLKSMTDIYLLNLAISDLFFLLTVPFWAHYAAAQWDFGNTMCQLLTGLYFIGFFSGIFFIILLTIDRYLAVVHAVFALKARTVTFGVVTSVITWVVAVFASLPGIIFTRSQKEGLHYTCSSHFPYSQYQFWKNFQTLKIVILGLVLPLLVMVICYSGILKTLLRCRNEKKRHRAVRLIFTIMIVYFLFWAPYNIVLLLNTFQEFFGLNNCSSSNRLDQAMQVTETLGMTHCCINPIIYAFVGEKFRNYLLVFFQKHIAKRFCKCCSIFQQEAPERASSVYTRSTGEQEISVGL

Structure (SMILES)	IC50 [nM]
Cc1ccc(-c2nc(CN3CCC(N(Cc4ccccc4)C(=O)Nc4ccccc4)CC3)c(C)[nH]2)cc1 [1-Benzyl-1-[1-[5-methyl-2-(4-methylphenyl)-1H-imidazol-4-ylmethyl]-4-piperidinyl]-3-phenylurea]	30
Cc1[nH]c(-c2ccc(C(F)(F)F)cc2)nc1CN1CCC(N(Cc2ccccc2)C(=O)Nc2ccc([N+](=O)[O-])cc2)CC1 [1-Benzyl-1-[1-[[2-[4-(trifluoromethyl)phenyl]-5-methyl-1H-imidazol-4-yl]methyl]-4-piperidinyl]-3-(4-nitrophenyl)urea]	450
CNC(=O)N(Cc1ccccc1)C1CCN(Cc2c(C)nc(-c3ccc(C(F)(F)F)cc3)n2Cc2ccccc2)CC1 [1-Benzyl-1-[1-[[3-benzyl-5-methyl-2-[4-(trifluoromethyl)phenyl]-3H-imidazol-4-yl]methyl]-4-piperidinyl]-3-methylurea]	1100
CNC(=O)N(Cc1ccccc1)C1CCN(Cc2nc(-c3ccc(C(F)(F)F)cc3)[nH]c2C)CC1 [1-Benzyl-3-methyl-1-[1-[[5-methyl-2-[4-(trifluoromethyl)phenyl]-1H-imidazol-4-yl]methyl]-4-piperidinyl]urea]	110

More lines, in order of falling IC50, values ahead:

IC50 [nM]	Structure (SMILES)
19100	CNC(=O)N(Cc1ccccc1)C1CCN(Cc2nc(-c3ccc(C(F)(F)F)cc3)[nH]c2-c2ccccc2)CC1 [1-Benzyl-3-methyl-1-[1-[[5-phenyl-2-[4-(trifluoromethyl)phenyl]-1H-imidazol-4-yl]methyl]-4-piperidinyl]urea]
9600	CNC(=O)N(Cc1ccccc1)C1CCN(Cc2nc(-c3ccccc3OC)[nH]c2C)CC1 [1-Benzyl-1-{1-[2-(2-methoxy-phenyl)-5-methyl-1H-imidazol-4-ylmethyl]-piperidin-4-yl}-3-methyl-urea]

Source: patent US20030069276A1, “Amino piperidine derivatives” (priority 2001, published 2003)
